# Laboratory results: patent publication US12091385B2, “Pyridinylcyanoguanidine derivative and use thereof” (Rushi Biotech (Hangzhou) Co., Ltd, priority 2021, dated 2024)
# Columns and labels:
# Type in all cases: cell-based
# [1] = system: Human gastric cancer cell MKN45; experiment: CCK-8 cell proliferation assay, MKN45; settings: MKN-45 cells, 72 hrs with drug, CCK-8, OD 450 nm
# Method in brief: (§1)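 Cells seeded at 5×10^4 cells/ml (RPMI 8226) or 3.5×10^4 cells/ml (others), 100 μl/well, then incubated 24 h at 37 °C, 5% CO2. Compound diluted in culture medium to working concentration and added; proliferation read by CCK-8.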
# [2] = system: Human colon cancer cell HCT-116; experiment: CCK-8 cell proliferation assay, HCT-116; settings: HCT116 cells, 72 hrs with drug, CCK-8, OD 450 nm
# Method in brief: as §1
# [3] = system: Human hepatoma cell HepG2; experiment: CCK-8 cell proliferation assay, HepG2; settings: HepG2 cells, 72 hrs with drug, CCK-8, OD 450 nm
# Method in brief: as §1
# [4] = system: Human esophageal cancer cell TE-1; experiment: CCK-8 cell proliferation assay, TE-1; settings: TE-1 cells, 72 hrs with drug, CCK-8, OD 450 nm
# Method in brief: as §1
# [5] = system: Human pancreatic cancer cell CFPAC-1; experiment: CCK-8 cell proliferation assay, CFPAC-1; settings: CFPAC-1 cells, 72 hrs with drug, CCK-8, OD 450 nm
# [6] = system: Human multiple myeloma cell RPMI 8226; experiment: CCK-8 cell proliferation assay, RPMI 8226; settings: RPMI8226 cells, 72 hrs with drug, CCK-8, OD 450 nm
# Method in brief: as §1
# [7] = system: Human lung adenocarcinoma cell A549; experiment: CCK-8 cell proliferation assay, A549; settings: A549 cells, 72 hrs with drug, CCK-8, OD 450 nm
# Method in brief: as §1
IC50 [1],IC50 [2],IC50 [3],IC50 [4],IC50 [5],IC50 [6],IC50 [7],Structure (SMILES)
33 nM,42 nM,76 nM,67 nM,29 nM,17 nM,51 nM,"N#CN=C(NCCCCCC1CCN(C(=O)c2ccc[nH]2)C1)Nc1ccncc1 (centres unmarked) [BSS-PC033, 2-cyano-1-(5-(1-(2-pyrrolylformyl)pyrrolidine-3-yl)pentyl)-3-(4-pyridinyl)guanidine]"
65 nM,81 nM,88 nM,83 nM,59 nM,52 nM,70 nM,"N#CN=C(NCCCCCN1CCN(C(=O)c2cc3ccccc3o2)CC1)Nc1ccncc1 [BSS-PC022, 2-cyano-1-(5-(1-(2-benzofurylformyl)piperazine-4-yl)pentyl)-3-(4-pyridinyl)guanidine]"
31 nM,69 nM,64 nM,60 nM,37 nM,51 nM,53 nM,"N#CN=C(NCCCCCCC1CCN(C(=O)c2ccco2)C1)Nc1ccncc1 (centres unmarked) [BSS-PC057, 2-cyano-1-(6-(1-(furoyl)pyrrolidine-3-yl)hexyl)-3-(4-pyridinyl)guanidine]"
47 nM,81 nM,69 nM,92 nM,49 nM,40 nM,63 nM,"COc1cccc(OC)c1C(=O)N1CCN(CCCCCNC(=NC#N)Nc2cccnc2)CC1 [BSS-PC027, 2-cyano-1-(5-(1-(2,6-dimethoxybenzoyl)piperazine-4-yl)pentyl)-3-(3-pyridinyl)guanidine]"
34 nM,43 nM,31 nM,30 nM,22 nM,22 nM,25 nM,"N#CN=C(NCCCCCCC1CCN(C(=O)c2cccs2)C1)Nc1ccncc1 (centres unmarked) [BSS-PC053, 2-cyano-1-(6-(1-(2-thienylformyl)pyrrolidine-3-yl)hexyl)-3-(4-pyridinyl)guanidine]"
60 nM,95 nM,77 nM,85 nM,35 nM,28 nM,74 nM,"N#CN=C(NCCCCCN1CCN(C(=O)c2cccs2)CC1)Nc1cccnc1 [BSS-PC018, 2-cyano-1-(5-(1-(2-thienylformyl)piperazine-4-yl)pentyl)-3-(3-pyridinyl)guanidine]"
30 nM,73 nM,55 nM,72 nM,31 nM,20 nM,32 nM,"N#CN=C(NCCCCCN1CCN(C(=O)c2ccco2)CC1)Nc1cccnc1 [BSS-PC026, 2-cyano-1-(5-((1-furoyl)piperazine-4-yl)pentyl)-3-(3-pyridinyl)guanidine]"
43 nM,92 nM,98 nM,92 nM,47 nM,41 nM,64 nM,"N#CN=C(NCCCCCCC1CCN(C(=O)c2cc3ccccc3o2)C1)Nc1ccncc1 (centres unmarked) [BSS-PC072, 2-cyano-1-(6-(1-(2-benzofurylformyl)pyrrolidine-3-yl)hexyl)-3-(4-pyridinyl)guanidine]"
